Values quoted from earlier work in US10610500B2, “Chemosensory receptor ligand-based therapies” (Anji Pharma (US) LLC, priority 2011, dated 2020).

target: T1, sweet receptor (Homo sapiens, UniProt Q7RTX0+Q8TE23); conditions: relative sweetness on a weight comparison basis to sucrose (=1.0); ranges: relative sweetness varied with the concentration of sucrose
T1 sequence (Q8TE23 20-839): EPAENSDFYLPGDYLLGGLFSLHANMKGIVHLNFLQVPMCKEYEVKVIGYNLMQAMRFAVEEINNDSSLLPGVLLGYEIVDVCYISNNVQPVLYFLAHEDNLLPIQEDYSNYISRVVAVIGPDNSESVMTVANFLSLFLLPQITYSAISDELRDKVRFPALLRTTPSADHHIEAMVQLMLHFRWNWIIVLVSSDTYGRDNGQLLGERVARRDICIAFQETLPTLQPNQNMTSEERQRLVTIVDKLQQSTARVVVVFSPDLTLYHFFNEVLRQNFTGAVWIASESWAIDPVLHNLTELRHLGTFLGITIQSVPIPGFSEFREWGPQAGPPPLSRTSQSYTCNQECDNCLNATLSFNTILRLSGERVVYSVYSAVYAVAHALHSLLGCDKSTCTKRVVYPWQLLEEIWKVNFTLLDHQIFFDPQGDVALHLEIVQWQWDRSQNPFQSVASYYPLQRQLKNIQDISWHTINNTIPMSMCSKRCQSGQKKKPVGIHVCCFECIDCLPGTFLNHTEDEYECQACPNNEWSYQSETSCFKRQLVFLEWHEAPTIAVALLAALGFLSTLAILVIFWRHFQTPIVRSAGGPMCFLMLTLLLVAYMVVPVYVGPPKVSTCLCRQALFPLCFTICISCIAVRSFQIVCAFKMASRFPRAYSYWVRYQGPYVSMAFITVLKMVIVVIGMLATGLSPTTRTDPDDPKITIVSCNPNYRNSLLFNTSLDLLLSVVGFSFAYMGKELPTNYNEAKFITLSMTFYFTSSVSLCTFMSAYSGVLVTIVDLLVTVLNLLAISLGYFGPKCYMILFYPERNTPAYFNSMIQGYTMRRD
T1 sequence (Q7RTX0 21-852): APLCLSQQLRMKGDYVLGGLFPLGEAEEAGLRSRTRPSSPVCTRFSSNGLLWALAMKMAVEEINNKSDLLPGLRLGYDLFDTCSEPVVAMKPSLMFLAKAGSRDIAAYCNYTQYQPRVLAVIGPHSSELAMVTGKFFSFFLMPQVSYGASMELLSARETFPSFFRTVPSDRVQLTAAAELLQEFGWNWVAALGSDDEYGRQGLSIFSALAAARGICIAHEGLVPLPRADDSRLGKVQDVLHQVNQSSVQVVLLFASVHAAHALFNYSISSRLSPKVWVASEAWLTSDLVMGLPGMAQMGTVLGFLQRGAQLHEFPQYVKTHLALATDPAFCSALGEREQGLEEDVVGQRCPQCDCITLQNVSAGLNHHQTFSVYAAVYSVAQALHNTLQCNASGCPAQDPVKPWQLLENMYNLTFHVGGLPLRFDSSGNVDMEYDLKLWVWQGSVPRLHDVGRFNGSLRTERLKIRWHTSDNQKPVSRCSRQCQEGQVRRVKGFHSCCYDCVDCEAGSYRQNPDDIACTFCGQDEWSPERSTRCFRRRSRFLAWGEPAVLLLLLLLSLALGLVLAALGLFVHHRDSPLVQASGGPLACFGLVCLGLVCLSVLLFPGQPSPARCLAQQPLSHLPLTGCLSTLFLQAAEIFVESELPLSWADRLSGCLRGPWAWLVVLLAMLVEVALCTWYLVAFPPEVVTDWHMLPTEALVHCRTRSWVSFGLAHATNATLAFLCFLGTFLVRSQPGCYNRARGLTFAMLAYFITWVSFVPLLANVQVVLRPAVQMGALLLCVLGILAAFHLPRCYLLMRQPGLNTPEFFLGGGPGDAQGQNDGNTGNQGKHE

Sweetness/potency | Molecule
550 | Curculin
75 | CC1=CC[C@@H]([C@@H](C)[C@H]2CC[C@@]3(C)[C@@H]4CC[C@H]5[C@](C)(C(=O)O)[C@@H](O[C@@H]6O[C@H](CO)[C@@H](O)[C@H](O)[C@H]6O[C@@H]6O[C@H](C(=O)O)[C@@H](O)[C@H](O)[C@H]6O)CC[C@@]56C[C@@]46CC[C@]23C)OC1=O [Abrusoside D]
400 | COc1ccc([C@H]2Cc3cccc(O)c3C(=O)O2)cc1O [Phyllodulcin]
600 | Polypodoside A
300 | CC1(C(=O)O)CCC2(C)CCC3(C)C(=CC(=O)C4C5(C)CCC(OC6OC(C(=O)O)C(O)C(O)C6OC6OCC(O)(CO)C6O)C(C)(C)C5CCC43C)C2C1 (stereo not drawn) [Apioglycyrrhizin]
95 | Periandrin II
250 | Cyclocaryoside I
54 | Scandenoside R6
5 | CC1(C)C[C@H]2C3=CC[C@@H]4[C@@]5(C)CC[C@H](O[C@@H]6O[C@H](CO[C@@H]7OC[C@H](O)[C@H](O)[C@H]7O[C@@H]7OC[C@@H](O)[C@H](O)[C@H]7O)[C@@H](O)[C@H](O)[C@H]6O)C(C)(C)[C@@H]5CC[C@@]4(C)[C@]3(C)C[C@@H](O)[C@@]23C[C@@H]1OC3=O [Albiziasaponin A]
55 | C/C(=C\CO)CCC1=C(C=O)CC(OC2OCC(O)C(O)C2O)C2C(C)(CO)CCCC12C (stereo not drawn) [Gaudichaudioside A]
150 | Rebaudioside B
1,500 | CC(C)=CCC[C@](C)(O)[C@@H]1CCC(C)=CC1=O [(+)-Hernandulcin]
50 | Pterocaryoside A
20 | COc1c(O)cc2c(c1O)C(=O)[C@H](OC(C)=O)[C@@H](c1ccc(O)cc1)O2 [(2R,3R)-2,3-Dihydro-5,7,4'-trihydroxy-6-methoxy-3-O-acetylflavonol]
90 | C=C1C[C@@]23CC[C@H]4[C@@](C)(CCC[C@@]4(C)C(=O)O)[C@@H]2CC[C@]1(O[C@@H]1O[C@H](CO)[C@@H](O)[C@H](O)[C@H]1O[C@@H]1O[C@H](CO)[C@@H](O)[C@H](O)[C@H]1O)C3 [Steviolbioside]
ca. 1 | C/C(=C\CC/C(C)=C/CO[C@@H]1O[C@H](CO)[C@@H](O)[C@H](O[C@@H]2O[C@@H](C)[C@H](O)[C@@H](O)[C@H]2O)[C@H]1O[C@@H]1O[C@@H](C)[C@H](O)[C@@H](O)[C@H]1O)CC/C=C(\C)CO[C@@H]1O[C@H](CO)[C@@H](O)[C@H](O[C@@H]2O[C@@H](C)[C@H](O)[C@@H](O)[C@H]2O)[C@H]1O[C@@H]1O[C@@H](C)[C@H](O)[C@@H](O)[C@H]1O [Mukurozioside IIb]
50 | CC1=CC[C@@H]([C@@H](C)[C@H]2CC[C@@]3(C)[C@@H]4CC[C@H]5[C@](C)(C(=O)O)[C@@H](O[C@@H]6O[C@H](CO)[C@@H](O)[C@H](O)[C@H]6O[C@@H]6O[C@H](CO)[C@@H](O)[C@H](O)[C@H]6O)CC[C@@]56C[C@@]46CC[C@]23C)OC1=O [Abrusoside C]
500 | Pentadin
100 | COC(=O)[C@H]1O[C@@H](O[C@H]2[C@H](O[C@H]3CC[C@]45C[C@]46CC[C@]4(C)[C@@H]([C@H](C)[C@@H]7CC=C(C)C(=O)O7)CC[C@@]4(C)[C@@H]6CC[C@H]5[C@]3(C)C(=O)O)O[C@H](CO)[C@@H](O)[C@@H]2O)[C@H](O)[C@@H](O)[C@@H]1O [Abrusoside B]

Sweetness/potency | Molecule
35 | Oc1ccc([C@H]2Oc3c(c(O)cc4c3[C@H]3c5c(O)cc(O)cc5O[C@@](c5ccc(O)cc5)(O4)[C@@H]3O)[C@H](c3c(O)cc(O)c4c3O[C@H](c3ccc(O)cc3)[C@@H](O)C4)[C@H]2O)cc1 [Selligueain A]
15 | COc1c(O)cc2c(c1O)C(=O)[C@H](O)[C@@H](c1ccc(O)c(O)c1)O2 [(2R,3R)-2,3-Dihydro-5,7,3',4'-tetrahydroxy-6-methoxyflavonol]
80 | CC(=O)O[C@H]1C(=O)c2c(O)cc(O)cc2O[C@@H]1c1ccc(O)c(O)c1 [(2R,3R)-Dihydroquercetin 3-O-acetate]
13 | C/C=C/c1ccc(OC)cc1 [trans-Anethole]
300 | C[C@@H]1O[C@@H](O[C@H]2[C@H](Oc3cc(O)c(C(=O)CCc4ccc(O)cc4)c(O)c3)O[C@H](CO)[C@@H](O)[C@@H]2O)[C@H](O)[C@H](O)[C@H]1O [Naringin dihydrochalcone]
2,000 | Brazzein: sweet protein of Pentadiplandra brazzeana Baillon (QDKCKKVYENYPVSKCQLANQCNYDCKLDKHARSGECFYDEKRNLQCICDYCEY; UniProt P56552 1-54, looked up)
30 | CC1=CC[C@@H]([C@@H](C)[C@H]2CC[C@@]3(C)[C@@H]4CC[C@H]5[C@](C)(C(=O)O)[C@@H](O[C@@H]6O[C@H](CO)[C@@H](O)[C@H](O)[C@H]6O)CC[C@@]56C[C@@]46CC[C@]23C)OC1=O [Abrusoside A]
600 | Albiziasaponin B
30 | C=C1C[C@@]23CC[C@H]4[C@@](C)(CCC[C@@]4(C)C(=O)O[C@@H]4O[C@H](CO)[C@@H](O)[C@H](O)[C@H]4O)[C@@H]2CC[C@]1(O[C@@H]1O[C@H](CO)[C@@H](O)[C@H](O)[C@H]1O[C@@H]1O[C@@H](C)[C@H](O)[C@@H](O)[C@H]1O)C3 [Dulcoside A]
200 | Cyclocarioside A
3,000 | Monellin
1000 | CC[C@@H](C)C(=O)O[C@@H](C)[C@]1(O)CC[C@]2(O)[C@@H]3CC[C@H]4C[C@@H](O[C@@H]5C[C@H](O)[C@H](O[C@H]6C[C@H](OC)[C@H](O[C@H]7C[C@@H](OC)[C@H](O[C@H]8C[C@@H](OC)[C@H](O[C@@H]9O[C@H](C)[C@@H](O[C@@H]%10O[C@H](CO)[C@@H](O)[C@H](O)[C@H]%10O)[C@H](OC)[C@H]9O)[C@@H](C)O8)[C@@H](C)O7)[C@@H](C)O6)[C@@H](C)O5)CC[C@]4(C)[C@H]3C[C@@H](OC(C)=O)[C@]12C [Telosmoside A15]
51 | Carnosifloside V
25 | COc1c(O)cc2c(c1O)C(=O)[C@H](OC(C)=O)[C@@H](c1ccc(O)c(O)c1)O2 [(2R,3R)-2,3-Dihydro-5,7,3',4'-tetrahydroxy-6-methoxy-3-O-acetylflavonol]
77 | C/C(=C\CC[C@@H](C)[C@H]1CC[C@@]2(C)[C@@H]3CC=C4[C@@H](CC[C@H](O[C@@H]5O[C@H](CO)[C@@H](O)[C@H](O)[C@H]5O)C4(C)C)[C@]3(C)[C@H](O)C[C@]12C)CO[C@@H]1O[C@H](CO[C@@H]2O[C@H](CO)[C@@H](O)[C@H](O)[C@H]2O)[C@@H](O)[C@H](O)[C@H]1O [Carnosifloside VI]
100 | C=C(C)C1CCC2(C)C(CC(OC3OCC(O)C(O)C3O)C3C(C(C)(O)C/C=C/C(C)(C)O)CCC32C)C1(C)CCC(=O)O (stereo not drawn) [Pterocaryoside B]
92 | CC1(C(=O)O)C=C2C3CCC4C5(CO)CCC(OC6OC(C(=O)O)C(O)C(O)C6OC6OC(C(=O)O)C(O)C(O)C6O)C(C)(C)C5CCC4(C)C3(C)CCC2(C)CC1 (stereo not drawn) [Periandrin III]
30 | Rebaudioside C

Molecule | Sweetness/potency
COc1ccc(C2Oc3cc(O)cc(O)c3C(=O)C2OC(C)=O)cc1O (stereo not drawn) [Dihydroquercetin 3-O-acetate 4'-methyl ether] | 400
O=C/C=C/c1ccccc1 [Trans-Cinnamaldehyde] | 50
